Measured values from patent US20260294915A1, “COMBINATION THERAPY COMPRISING A MAT2A INHIBITOR AND A TOPOISOMERASE INHIBITOR, A SPLICING INHIBITOR SULFONAMIDE, OR A KIF18 INHIBITOR” (IDEAYA BIOSCIENCES, INC., priority 2023, published 2026).

Key:
NCI-H520 = assay: 10-day proliferation (CTG), SPLAM titration + 1000 nM Compound A, Bliss (Example 5; Tables 12-19); format: cell-based; design: key: −100 to 100; 0 = cell number at T0, <0 = cytotoxic; conditions: for GDI (growth death index), single agent Cmpd A: NCI-H520, 1000 nM Compound A
Description: (§1) A 10-day proliferation assay was performed in a panel of 5 MTAP-deficient and 2 wild type non-small cell lung and bladder cancer cell lines. Optimal cell seeding for all cell lines was determined by assessing the growth over a range of seeding densities in a 384-well format to identify conditions that permitted proliferation for 10 days. Cells were then plated at the optimal seeding density and treated with 20-point, two-fold dilution series of each of four structurally different SPLAMs in combination with a 1000 nM fixed concentration of Compound A. Single agent titrations for Compound A and each SPLAM were included for comparison. Concentrations tested for each SPLAM alone or in combination ranged from 0.04 nM to 20,000 nM. A plate of cells was harvested at the time of compound addition to quantify the number of cells at the start of the combination (T0). For cell quantification, the harvested cells were lysed with Promega CellTiter-Glo (CTG) reagent according to the manufacturer's protocol and the chemiluminescent signal was detected as described in Example 1 above. Cells were incubated with the drug combinations at 37° C. with 5% CO2 for 10 days. Cells were then lysed with CTG and the chemiluminescent signal was measured.
(§2) CTG values obtained after the 10-day treatment were background subtracted and expressed as a percent of the T0 value set at 100%. Data were plotted against compound concentration and fit with a four-parameter equation to generate single agent dose response curves. Percent inhibition was determined for each combination and single agent concentration compared to a DMSO control. In addition, the overall net growth or death of the cells was calculated and reported as a growth death index (GDI) value on a scale of −100 to 100 with the midpoint (0) being the number of cells at the beginning of the combination (T0).
(§3) Predicted inhibition was calculated using (Ea+Eb)−(Ea*Eb) where E equals the effect (inhibition) of each single agent (a and b). A difference between the observed inhibition percentage and the predicted inhibition percentage greater than 10% was considered synergistic. A Bliss score was only reported for combinations eliciting >20% growth inhibition (GDI value <80). Since Bliss is calculated based on growth inhibition, scores within cytotoxic dose ranges may not accurately reflect synergistic cytoxicity.
(§4) Synergy was measured across the Indisulam titration with 1000 nM Compound A by Bliss Independence analysis. Bliss scores >10 are indicated by “*” and are considered synergistic. […] Synergy as reported using Bliss may be underrepresented within cytotoxic dose ranges. Growth death index values are shown for the combination titration and each single agent Compound A (Cmpd A) and Indisulam on a scale of −100 to 100 with the midpoint (0) being the number of cells at the beginning of the combination (T0). Scores less than 0 are highlighted black and are representative of a cytotoxic response. Bliss and GDI values are shown for five MTAP-deficient cell lines: NCI-H520 (13A), TCCSUP (13B).
(§5) Synergy was measured across the E7820 titration with 1000 nM Compound A by Bliss Independence analysis. Bliss scores >10 are indicated by “*” and are considered synergistic. […] Synergy as reported using Bliss may be underrepresented within cytotoxic dose ranges. Growth death index values are shown for the combination titration and each single agent Compound A (Cmpd A) and Indisulam on a scale of −100 to 100 with the midpoint (0) being the number of cells at the beginning of the combination (T0). Scores less than 0 are indicated by “**” and are representative of a cytotoxic response. Bliss and GDI values are shown for five MTAP-deficient cell lines: NCI-H520 (15A), TCCSUP (15B).
(§6) Synergy was measured across the Chloroquinoxaline Sulfonamide titration with 1000 nM Compound A by Bliss Independence analysis. Bliss scores >10 are indicated by and are considered synergistic.

TCCSUP = assay: as above; format: cell-based; design: key: −100 to 100; 0 = cell number at T0, <0 = cytotoxic; conditions: for GDI (growth death index), single agent Cmpd A: TCCSUP, 1000 nM Compound A
Description: as §1, §2, §3, §4, §5, §6

[1] = SPLAM 0.04 nM, alone or + 1 uM Cmpd A
[2] = SPLAM 0.1 nM, alone or + 1 uM Cmpd A
[3] = SPLAM 0.2 nM, alone or + 1 uM Cmpd A
[4] = SPLAM 0.3 nM, alone or + 1 uM Cmpd A
[5] = SPLAM 0.6 nM, alone or + 1 uM Cmpd A
[6] = SPLAM 1.2 nM, alone or + 1 uM Cmpd A
[7] = SPLAM 2.4 nM, alone or + 1 uM Cmpd A
[8] = SPLAM 4.9 nM, alone or + 1 uM Cmpd A
[9] = SPLAM 9.8 nM, alone or + 1 uM Cmpd A
[10] = SPLAM 19.5 nM, alone or + 1 uM Cmpd A
[11] = SPLAM 39.1 nM, alone or + 1 uM Cmpd A
[12] = SPLAM 78.1 nM, alone or + 1 uM Cmpd A
[13] = SPLAM 156.3 nM, alone or + 1 uM Cmpd A
[14] = SPLAM 312.5 nM, alone or + 1 uM Cmpd A
[15] = SPLAM 625 nM, alone or + 1 uM Cmpd A
[16] = SPLAM 1250 nM, alone or + 1 uM Cmpd A
[17] = SPLAM 2500 nM, alone or + 1 uM Cmpd A
[18] = SPLAM 5000 nM, alone or + 1 uM Cmpd A
[19] = SPLAM 10000 nM, alone or + 1 uM Cmpd A
[20] = SPLAM 20000 nM, alone or + 1 uM Cmpd A

Nc1nc(=O)n(-c2ccccc2Cl)c2nc(C(F)(F)F)ccc12 [Compound A]
GDI (growth death index), single agent Cmpd A (NCI-H520; Table 17A): 100
GDI (growth death index), single agent Cmpd A (NCI-H520; Table 19A): 100
GDI (NCI-H520; single agent Cmpd A, 1000 nM): 100
GDI (growth death index), single agent Cmpd A (TCCSUP; Table 17B): 84
GDI (growth death index), single agent Cmpd A (TCCSUP; Table 19B): 84
GDI (TCCSUP; single agent Cmpd A, 1000 nM): 84

Cc1ccc(NS(=O)(=O)c2cccc(C#N)c2)c2[nH]cc(C#N)c12 [Compound E7820, 3-cyano-N-(3-cyano-4-methyl-1H-indol-7-yl)benzenesulfonamide]
GDI (NCI-H520; [1]): 100
GDI (NCI-H520; [2]): 100
GDI (NCI-H520; [3]): 100
GDI (NCI-H520; [4]): 100
GDI (NCI-H520; [5]): 100
GDI (NCI-H520; [6]): 100
GDI (NCI-H520; [7]): 100
GDI (NCI-H520; [8]): 100
GDI (NCI-H520; [9]): 100
GDI (NCI-H520; [10]): 100
GDI (NCI-H520; [11]): 100
GDI (NCI-H520; [12]): 100
GDI (NCI-H520; [13]): 100
GDI (NCI-H520; [14]): 82
GDI (NCI-H520; [15]): 54
GDI (NCI-H520; [16]): 32
GDI (NCI-H520; [17]): 21
GDI (NCI-H520; [18]): 11
GDI (NCI-H520; [19]): 8
GDI (NCI-H520; [20]): 5
GDI (TCCSUP; [1]): 100
GDI (TCCSUP; [2]): 100
GDI (TCCSUP; [3]): 100
GDI (TCCSUP; [4]): 100
GDI (TCCSUP; [5]): 100
GDI (TCCSUP; [6]): 100
GDI (TCCSUP; [7]): 100
GDI (TCCSUP; [8]): 100
GDI (TCCSUP; [9]): 100
GDI (TCCSUP; [10]): 100
GDI (TCCSUP; [11]): 100
GDI (TCCSUP; [12]): 100
GDI (TCCSUP; [13]): 100
GDI (TCCSUP; [14]): 100
GDI (TCCSUP; [15]): 100
GDI (TCCSUP; [16]): 100
GDI (TCCSUP; [17]): 100
GDI (TCCSUP; [18]): 92
GDI (TCCSUP; [19]): 91
GDI (TCCSUP; [20]): 78

NS(=O)(=O)c1ccc(S(=O)(=O)Nc2cccc3c(Cl)c[nH]c23)cc1 [Indisulam, N-(3-chloro-1H-indol-7-yl)benzene-1,4-disulfonamide]
GDI (NCI-H520; [1]): 95
GDI (NCI-H520; [2]): 100
GDI (NCI-H520; [3]): 100
GDI (NCI-H520; [4]): 100
GDI (NCI-H520; [5]): 100
GDI (NCI-H520; [6]): 100
GDI (NCI-H520; [7]): 100
GDI (NCI-H520; [8]): 100
GDI (NCI-H520; [9]): 100
GDI (NCI-H520; [10]): 100
GDI (NCI-H520; [11]): 100
GDI (NCI-H520; [12]): 100
GDI (NCI-H520; [13]): 100
GDI (NCI-H520; [14]): 97
GDI (NCI-H520; [15]): 45
GDI (NCI-H520; [16]): 25
GDI (NCI-H520; [17]): 12
GDI (NCI-H520; [18]): 6
GDI (NCI-H520; [19]): 6
GDI (NCI-H520; [20]): 2
GDI (TCCSUP; [1]): 100
GDI (TCCSUP; [2]): 100
GDI (TCCSUP; [3]): 100
GDI (TCCSUP; [4]): 100
GDI (TCCSUP; [5]): 100
GDI (TCCSUP; [6]): 100
GDI (TCCSUP; [7]): 100
GDI (TCCSUP; [8]): 100
GDI (TCCSUP; [9]): 100
GDI (TCCSUP; [10]): 100
GDI (TCCSUP; [11]): 100
GDI (TCCSUP; [12]): 100
GDI (TCCSUP; [13]): 100
GDI (TCCSUP; [14]): 100
GDI (TCCSUP; [15]): 100
GDI (TCCSUP; [16]): 100
GDI (TCCSUP; [17]): 100
GDI (TCCSUP; [18]): 100
GDI (TCCSUP; [19]): 86
GDI (TCCSUP; [20]): 70
